Measured values from the NIST ThermoML archive (doi:10.1016/j.jct.2013.05.024).
Numbers after ± are expanded uncertainties.

Settings: 101.3 kPa, Liquid, Vibrating tube method

## CCOC(=O)C(=O)OCC [diethyl ethanedioate]
278.15 K
  mass density: 1095.94 ± 0.31 kg/m3
288.14 K
  mass density: 1084.24 ± 0.3 kg/m3
298.15 K
  mass density: 1072.53 ± 0.29 kg/m3
313.15 K
  mass density: 1054.92 ± 0.27 kg/m3
328.15 K
  mass density: 1037.26 ± 0.26 kg/m3
338.15 K
  mass density: 1025.42 ± 0.25 kg/m3
348.15 K
  mass density: 1013.53 ± 0.24 kg/m3
358.15 K
  mass density: 1001.6 ± 0.23 kg/m3
